Each compound was assayed against T1, ER (Homo sapiens, UniProt P03372) (assay: ER degradation activity, in-cell western blot analysis in T47D cells). Conditions: 16 hours, Table A does not say which cell line (T47D or MCF7), read-out: Potency (DC50).
T1 construct: host or cells: T47D and MCF7 human breast cancer cells
T1 sequence (P03372 1-595): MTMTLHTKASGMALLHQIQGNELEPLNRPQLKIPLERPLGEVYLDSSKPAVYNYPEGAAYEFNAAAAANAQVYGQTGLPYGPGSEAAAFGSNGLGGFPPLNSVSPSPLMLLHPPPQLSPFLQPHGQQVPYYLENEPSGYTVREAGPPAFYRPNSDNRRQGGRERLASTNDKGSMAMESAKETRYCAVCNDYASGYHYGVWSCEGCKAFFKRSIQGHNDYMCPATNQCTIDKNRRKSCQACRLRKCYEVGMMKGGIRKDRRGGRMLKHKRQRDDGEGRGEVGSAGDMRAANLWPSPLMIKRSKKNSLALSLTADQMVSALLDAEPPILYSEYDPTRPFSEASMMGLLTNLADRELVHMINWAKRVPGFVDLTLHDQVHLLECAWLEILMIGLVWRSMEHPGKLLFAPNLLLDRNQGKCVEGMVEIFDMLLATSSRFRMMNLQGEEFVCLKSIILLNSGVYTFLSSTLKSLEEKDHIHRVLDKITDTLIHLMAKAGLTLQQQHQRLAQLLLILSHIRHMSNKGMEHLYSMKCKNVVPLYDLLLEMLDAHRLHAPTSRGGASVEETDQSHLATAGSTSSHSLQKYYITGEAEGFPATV
Assay type: cell-based
Outline: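 In-cell western, T47D; compounds 16 h, 0.5% DMSO final; anti-rabbit-680/anti-mouse-800 secondaries, 1 h RT, dark; read on CLX imager. ER % vs untreated/DMSO wells (100%).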

DC50 [nM]	SMILES
< 10	C[C@@H]1Cc2c([nH]c3ccccc23)[C@@H](c2c(F)cc(C3CCC(C(=O)N4CCC(N5Cc6cc7c(cc6C5)C(=O)N(C5CCC(=O)NC5=O)C7)CC4)CC3)cc2F)N1CC(F)F (stereo partly drawn) [E 307, 3-(6-(1-(4-(4-((1R,3R)-2-(2,2-difluoroethyl)-3-methyl-2,3,4,9-tetrahydro-1H-pyrido[3,4-b]indol-1-yl)-3,5-difluorophenyl)cyclohexane-1-carbonyl)piperidin-4-yl)-1-oxo-3,5,6,7-tetrahydropyrrolo[3,4-f]isoindol-2(1H)-yl)piperidine-2,6-dione]
10 to 100	C[C@@H]1Cc2c([nH]c3ccccc23)[C@@H](c2c(F)cc(C3CCC(CN4CCC(N5Cc6cc7c(cc6C5)C(=O)N(C5CCC(=O)NC5=O)C7)CC4)CC3)cc2F)N1CC(F)F (stereo partly drawn) [E 308, 3-(6-(1-((4-(4-((1R,3R)-2-(2,2-difluoroethyl)-3-methyl-2,3,4,9-tetrahydro-1H-pyrido[3,4-b]indol-1-yl)-3,5-difluorophenyl)cyclohexyl)methyl)piperidin-4-yl)-1-oxo-3,5,6,7-tetrahydropyrrolo[3,4-f]isoindol-2(1H)-yl)piperidine-2,6-dione]
10 to 100	C[C@@H]1Cc2c([nH]c3ccccc23)[C@@H](c2c(F)cc(-c3cnc(C(=O)N4CCC(N5Cc6cc7c(cc6C5)C(=O)N(C5CCC(=O)NC5=O)C7=O)CC4)nc3)cc2F)N1CC(F)F (stereo partly drawn) [E 309, 6-(1-(5-(4-((1R,3R)-2-(2,2-difluoroethyl)-3-methyl-2,3,4,9-tetrahydro-1H-pyrido[3,4-b]indol-1-yl)-3,5-difluorophenyl)pyrimidine-2-carbonyl)piperidin-4-yl)-2-(2,6-dioxopiperidin-3-yl)-6,7-dihydropyrrolo[3,4-f]isoindole-1,3(2H,5H)-dione]
> 100	O=C1CCC(N2C(=O)c3cc4c(cc3C2=O)CN(C(=O)[C@H]2CC[C@H](CN3CC(Oc5ccc([C@@H]6c7ccc(O)cc7CC[C@@H]6c6ccccc6)cc5)C3)CC2)C4)C(=O)N1 (stereo partly drawn) [E 310, 2-(2,6-dioxopiperidin-3-yl)-6-((1R,4r)-4-((3-(4-((1R,2S)-6-hydroxy-2-phenyl-1,2,3,4-tetrahydronaphthalen-1-yl)phenoxy)azetidin-1-yl)methyl)cyclohexane-1-carbonyl)-6,7-dihydropyrrolo[3,4-f]isoindole-1,3(2H,5H)-dione]
> 100	O=C1CCC(N2C(=O)c3cc4c(cc3C2=O)CN(Cc2ccc(N3CCN(c5ccc([C@@H]6c7ccc(O)cc7CC[C@@H]6c6ccccc6)cc5)CC3)nc2)C4)C(=O)N1 (stereo partly drawn) [E 311, 2-(2,6-dioxopiperidin-3-yl)-6-((6-(4-(4-((1R,2S)-6-hydroxy-2-phenyl-1,2,3,4-tetrahydronaphthalen-1-yl)phenyl)piperazin-1-yl)pyridin-3-yl)methyl)-6,7-dihydropyrrolo[3,4-f]isoindole-1,3(2H,5H)-dione]
10 to 100	C[C@@H]1Cc2c([nH]c3ccccc23)[C@@H](c2ccc(C3CCC(C(=O)N4CCC(N5Cc6cc7c(cc6C5)C(=O)N(C5CCC(=O)NC5=O)C7=O)CC4)CC3)cc2F)N1CC(F)F (stereo partly drawn) [E 312, 6-(1-(4-(4-((1R,3R)-2-(2,2-difluoroethyl)-3-methyl-2,3,4,9-tetrahydro-1H-pyrido[3,4-b]indol-1-yl)-3-fluorophenyl)cyclohexane-1-carbonyl)piperidin-4-yl)-2-(2,6-dioxopiperidin-3-yl)-6,7-dihydropyrrolo[3,4-f]isoindole-1,3(2H,5H)-dione]
10 to 100	C[C@@H]1Cc2c([nH]c3ccccc23)[C@@H](c2ccc(C3CCC(C(=O)N4CCC(N5Cc6cc7c(cc6C5)C(=O)N(C5CCC(=O)NC5=O)C7=O)CC4)CC3)cn2)N1CC(F)F (stereo partly drawn) [E 313, 6-(1-(4-(6-((1S,3R)-2-(2,2-difluoroethyl)-3-methyl-2,3,4,9-tetrahydro-1H-pyrido[3,4-b]indol-1-yl)pyridin-3-yl)cyclohexane-1-carbonyl)piperidin-4-yl)-2-(2,6-dioxopiperidin-3-yl)-6,7-dihydropyrrolo[3,4-f]isoindole-1,3(2H,5H)-dione]
> 100	C[C@@H]1Cc2c([nH]c3ccccc23)[C@@H](c2ccc(C3=CCC(C(=O)N4CCC(N5Cc6cc7c(cc6C5)C(=O)N(C5CCC(=O)NC5=O)C7=O)CC4)CC3)nc2)N1CC(F)F (stereo partly drawn) [E 314, 6-(1-(4-(5-((1R,3R)-2-(2,2-difluoroethyl)-3-methyl-2,3,4,9-tetrahydro-1H-pyrido[3,4-b]indol-1-yl)pyridin-2-yl)cyclohex-3-ene-1-carbonyl)piperidin-4-yl)-2-(2,6-dioxopiperidin-3-yl)-6,7-dihydropyrrolo[3,4-f]isoindole-1,3(2H,5H)-dione]
> 100	C[C@@H]1Cc2c([nH]c3ccccc23)[C@@H](c2cnc(C3=CCC(C(=O)N4CCC(N5Cc6cc7c(cc6C5)C(=O)N(C5CCC(=O)NC5=O)C7=O)CC4)CC3)nc2)N1CC(F)F (stereo partly drawn) [E 315, 6-(1-(4-(5-((1R,3R)-2-(2,2-difluoroethyl)-3-methyl-2,3,4,9-tetrahydro-1H-pyrido[3,4-b]indol-1-yl)pyrimidin-2-yl)cyclohex-3-ene-1-carbonyl)piperidin-4-yl)-2-(2,6-dioxopiperidin-3-yl)-6,7-dihydropyrrolo[3,4-f]isoindole-1,3(2H,5H)-dione]
> 100	C[C@@H]1Cc2c([nH]c3ccccc23)[C@@H](c2ccc(C3=CCC(C(=O)N4CCC(N5Cc6cc7c(cc6C5)C(=O)N(C5CCC(=O)NC5=O)C7=O)CC4)CC3)cc2)N1CC(F)F (stereo partly drawn) [E 316, 6-(1-(4′-((1R,3R)-2-(2,2-difluoroethyl)-3-methyl-2,3,4,9-tetrahydro-1H-pyrido[3,4-b]indol-1-yl)-2,3,4,5-tetrahydro-[1,1′-biphenyl]-4-carbonyl)piperidin-4-yl)-2-(2,6-dioxopiperidin-3-yl)-6,7-dihydropyrrolo[3,4-f]isoindole-1,3(2H,5H)-dione]
10 to 100	C[C@@H]1Cc2cc(O)ccc2[C@@H](c2ccc(C3CCC(C(=O)N4CCC(N5Cc6cc7c(cc6C5)C(=O)N(C5CCC(=O)NC5=O)C7=O)CC4)CC3)cc2F)N1CC(F)F (stereo partly drawn) [E 317, 6-(1-(4-(4-((1S,3R)-2-(2,2-difluoroethyl)-6-hydroxy-3-methyl-1,2,3,4-tetrahydroisoquinolin-1-yl)-3-fluorophenyl)cyclohexane-1-carbonyl)piperidin-4-yl)-2-(2,6-dioxopiperidin-3-yl)-6,7-dihydropyrrolo[3,4-f]isoindole-1,3(2H,5H)-dione]
< 10	C[C@@H]1Cc2cc(O)ccc2[C@@H](c2ccc(N3CCC(C(=O)N4CCC(N5Cc6cc7c(cc6C5)C(=O)N(C5CCC(=O)NC5=O)C7=O)CC4)CC3)cc2)N1CC(F)F (stereo partly drawn) [E 318, 6-(1-(1-(4-((1R,3R)-2-(2,2-difluoroethyl)-6-hydroxy-3-methyl-1,2,3,4-tetrahydroisoquinolin-1-yl)phenyl)piperidine-4-carbonyl)piperidin-4-yl)-2-(2,6-dioxopiperidin-3-yl)-6,7-dihydropyrrolo[3,4-f]isoindole-1,3(2H,5H)-dione]
> 100	C[C@@H]1Cc2c([nH]c3ccccc23)[C@@H](c2ccc(C3CCC(C(=O)N4CCC(N5Cc6cc7c(cc6C5)C(=O)N(C5CCC(=O)NC5=O)C7=O)CC4)CC3)nc2)N1CC(F)F (stereo partly drawn) [E 319, 6-(1-(4-(5-((1R,3R)-2-(2,2-difluoroethyl)-3-methyl-2,3,4,9-tetrahydro-1H-pyrido[3,4-b]indol-1-yl)pyridin-2-yl)cyclohexane-1-carbonyl)piperidin-4-yl)-2-(2,6-dioxopiperidin-3-yl)-6,7-dihydropyrrolo[3,4-f]isoindole-1,3(2H,5H)-dione]
< 10	C[C@@H]1Cc2cc(O)ccc2[C@@H](c2c(F)cc(N3CCC4(CCN(C(=O)CN5Cc6cc7c(cc6C5)C(=O)N(C5CCC(=O)NC5=O)C7=O)CC4)CC3)cc2F)N1CC(F)F (stereo partly drawn) [E 320, 6-(2-(9-(4-((1S,3R)-2-(2,2-difluoroethyl)-6-hydroxy-3-methyl-1,2,3,4-tetrahydroisoquinolin-1-yl)-3,5-difluorophenyl)-3,9-diazaspiro[5.5]undecan-3-yl)-2-oxoethyl)-2-(2,6-dioxopiperidin-3-yl)-6,7-dihydropyrrolo[3,4-f]isoindole-1,3(2H,5H)-dione]
< 10	C[C@@H]1Cc2cc(O)ccc2C(c2ccc(N3CCC(C(=O)N4CCC(N5Cc6cc7c(cc6C5)C(=O)N(C5CCC(=O)NC5=O)C7=O)CC4)CC3)cc2)N1CC(F)F (stereo partly drawn) [E 321, 6-(1-(1-(4-((3R)-2-(2,2-difluoroethyl)-6-hydroxy-3-methyl-1,2,3,4-tetrahydroisoquinolin-1-yl)phenyl)piperidine-4-carbonyl)piperidin-4-yl)-2-(2,6-dioxopiperidin-3-yl)-6,7-dihydropyrrolo[3,4-f]isoindole-1,3(2H,5H)-dione]
> 100	C[C@@H]1Cc2cc(O)ccc2C(c2ccc(N3CCC(C(=O)N4CCC(N5Cc6cc7c(cc6C5)C(=O)N(C5CCC(=O)NC5=O)C7=O)CC4)CC3)cn2)N1CC(F)F (stereo partly drawn) [E 322, 6-(1-(1-(6-((3R)-2-(2,2-difluoroethyl)-6-hydroxy-3-methyl-1,2,3,4-tetrahydroisoquinolin-1-yl)pyridin-3-yl)piperidine-4-carbonyl)piperidin-4-yl)-2-(2,6-dioxopiperidin-3-yl)-6,7-dihydropyrrolo[3,4-f]isoindole-1,3(2H,5H)-dione]

Reference: US20240190880A1 (THE REGENTS OF THE UNIVERSITY OF MICHIGAN, priority 2021, published 2024)
